Values quoted from earlier work, collected in US7122568B1, “Use of low-dose PDT to inhibit restenosis” (QLT, Inc., priority 1999, dated 2006).
Read-outs that look alike come from different tables or passages of the source.

What was measured:
porcine model = settings: 0.3 mg/kg injected four hours prior to endothelial denudation; external irradiation 20 J/cm2 of 652 nm
[1] = system: normal rabbit carotid arteries; settings: systemic administration 7 days after denudation, external irradiation two days later; five weeks after PDT
[2] = system: rabbit arteries injured by endothelial denudation; settings: systemic administration after injury, 120 or 240 J/cm2 irradiation 24 hours later
[3] = system: normal rat carotid arteries; settings: systemic administration, external irradiation; PDT on days 2 and 7 after denudation, read on day 14

Oc1cccc(-c2c3nc(c(-c4cccc(O)c4)c4ccc([nH]4)c(-c4cccc(O)c4)c4nc(c(-c5cccc(O)c5)c5ccc2[nH]5)CC4)C=C3)c1 [m-THPC, metatetrahydroxyphenyl-chlorin]
effect on intimal area (porcine model): significant increase of intimal area

Photofrin™
effect on induced IH response (ratio of IH area to normalized area enclosed by the IEL) [1]: effective in reducing the induced IH response
effect on IH [2]: prevention of IH

chloraluminum-sulfonated phthalocyanine [CASPc]
effect on induced IH response [3]: effective in inhibiting the induced IH response

benzoporphyrin derivative monoacid ring A [BPD-MA]
effect on IH (rat carotid artery; 0.5 μg/ml local delivery, 50 and 100 J/cm2 of 690 nm (Stages I and II)): little effect on reducing IH
effect on IH (rat carotid artery; 0.5 μg/ml local delivery, 100 J/cm2 of 690 nm (Stage II)): induction of significant IH
effect on IH (rat carotid artery; 25 μg/ml local delivery, 50 J/cm2 of 690 nm (Stage III)): inhibit IH
photothrombosis (rat carotid artery; 25 μg/ml local delivery, 100 J/cm2 of 690 nm (Stage IV)): induce photothrombosis
